Data set [1] is described as follows: Plasma pharmacokinetics of aspirin and metabolites after single oral gavage dose. It is filed as in vivo, cynomolgus monkey. The settings on record: cynomolgus monkey, plasma, read-out: modeled AUC of Aspirin. As for the experimental part: The objectives of this study are to determine the comparative clinical efficacy as determined by TxB2 suppression with single oral gavage dose administration of Aspirin, ST0702 and ST0702 Micronised to the cynomolgus monkey. Aspirin pharmacokinetics were compared using Area Under the Curve (AUC) calculations.
The objectives of this study are to determine the comparative pharmacokinetics of ST0702 at 9.6 and 4.8 mg/Kg with single oral gavage dose administration to the cynomolgus monkey and to determine dose-response effects.
Although the half life of the Isosorbide 2 salicylate 5 nicotinate metabolite is very short in-vitro, we investigated the serum taken from Cynomologus Monkeys participating in Study 2B above. The comparative pharmacokinetics of Isosorbide 2 salicylate 5 nicotinate from Monkeys receiving a single oral gavage dose of micronized ST0702 at 9.6 and 4.8 mg/Kg were evaluated. The concentrations of the breakdown products of ISANA were quantified using LCMS methods.
Animals are acclimated to the oral gavage procedure for at least 3 days prior to the commencement of dose formulation administration. Deionized water is administered by oral gavage using a disposable catheter attached to a plastic syringe at a dose volume of 5 mL/kg. Animals are treated at approximately the same time on each dosing day. Dose formulations are administered by oral gavage using a disposable catheter attached to a plastic syringe. Following each daily dose, the gavage tube is rinsed with 6 mL of Ultra Pure water into the animal's stomach. Each animal will be dosed with a clean gavage tube on each dosing occasion. The dosing volume is 10 mL/kg. Each actual volume administered will be based on the most recent practical body weight of each animal. The dose formulations will be stirred continuously during dose administration.
Samples are mixed gently and placed on crushed wet ice until centrifugation, which are carried out as soon as practical. The samples are centrifuged for approximately 10 minutes in a refrigerated centrifuge (approximately 4° C.) at 2700 rpm. The resultant plasma are separated, transferred to uniquely labeled clear polypropylene tubes, and frozen immediately over dry ice and transferred to a freezer set to maintain −80° C. The plasma samples are transferred to the bioanalytical laboratory at the Testing Facility.
Plasma samples are analyzed for concentration of Aspirin, Salicylic Acid and Nicotinic Acid using a qualified analytical procedure. Analysis are performed by LC MS/MS under Analytical Procedure. Data collection is performed using Analyst from AB Sciex. […]

Data set [2] concerns washed platelet samples. The experiment in a line: Collagen-induced platelet aggregation in the TCIPA studies (washed platelets). It is filed as cell-based, human. The settings on record: Homo sapiens, Platelet; aspirin 300 μM, n=4.
The subject of data set [3] is MMP-2. The experiment in a line: MMP-2 release during 59M-induced TCIPA by zymography. It is filed as cell-based, human. The settings on record: 300 uM, P>0.05. As for the experimental part: Sample collection was carried out as previously described (Jurasz et al., 2001; Medina et al., 2006). Briefly, platelets at a concentration of 2.5×10^8/ml were placed into lumi-aggregometer and tumor cells (59M) were added at 1×10^3/ml. When platelet aggregation reached 50% maximal light transmission the reaction was terminated and samples were collected. The samples were then centrifuged at 900×g at room temperature for 10 min. After centrifugation, platelet releasates were collected and stored at −80 C until assayed for the presence of MMP activity by zymography.
Gelatin zymography was used to detect the activity of MMP-2 in the releasates as previously described (Alonso-Escolano et al., 2004; Jurasz et al., 2001; Medina et al., 2006). Briefly, samples were subjected to 10% sodium dodecyl sulfate-polyacrylamide gel electrophoresis (SDS-PAGE) with copolymerized gelatin (0.2%; Sigma Chemical Co, St. Louis, Mo.) incorporated as a substrate for gelatinolytic proteases. […] The gelatinolytic activities were detected as transparent bands against the background of Coomassie blue-stained gelatin. The intensities of the separate bands were analyzed and quantified using ChemiDoc XRS System (Bio-Rad, Hercules, Calif., U.S.A.). The gelatinolytic activity of each band was expressed as arbitrary units of density/mg protein.

Data set [4] relates to platelet rich plasma (PRP). Put plainly: U46619-induced platelet aggregation in PRP. It is filed as cell-based, human. As for the experimental part: Platelet aggregation was measured by light aggregometry. […] Aggregation was initiated by the addition of agonists, and monitored by Aggro-Link software for at least 6 min.
Data set [5] has as its system platelet rich plasma (PRP). The settings on record: values marked † From Reference 7, read-out: IC50 (PRP, 95% CI); cited from earlier work.
Data set [6] deals with 59M cells. Put plainly: Flow-mediated TCIPA using an ultrasound standing wave trap. It is filed as cell-based, human. The settings on record: 500 μM, 59M cell cluster. An excerpt:
The ultrasound trap had three essential features: a transducer (Ferroperm, Kvistgard, Denmark) in a housing of radial symmetry, an aqueous phase and a reflector that provided optical access from above. The trap was driven with a function generator (Hewlett Packard 33120A, UK). Microscopic observation occurred with a fast, high-resolution XM10 camera (Soft Imaging System, SIS, GmbH) mounted on an Olympus BX51M reflection epi-fluorescence microscope. Images were captured by a standard PC equipped with the Cell-D image acquisition software (Soft Imaging System, SIS, GmbH).
The experimental procedure was as follows: 59M cells were introduced into the trap, the acoustic field (2.13 MHz, 0.85 MPa) was initiated and cell clusters were allowed to form. Clusters remained levitated in suspension for 10 min. Washed platelets (2.5×10^8/ml) were introduced into the trap at a flow rate of 3 μl/min. Perfusion of washed platelets around the cluster proceeded following initial adhesion of platelets to the periphery of the cluster.
To study the effect of aspirin and aspirin prodrugs in TCIPA, washed platelets were pre-incubated for 10 min at room temperature with the inhibitors: aspirin, nicotinate, ISAS, ISMNA, ortho and meta (all at a concentration of 500 μM), prior to their introduction into the ultrasound trap. […] The cell cluster-platelet aggregate remained under microscopic observation for further 10 min (the upper time limit established in the current study) under continuous flow conditions. Further experiments were performed with ST0702 salicylate (500 μM).

Molecules are shown by their SMILES. Entries after “also recorded” stand apart in the source; their conditions may differ. Where two headings read alike, the source gives them in different places.

As a reminder, the AUC is concentration integrated over time. The inhibition is the drop in the measured response relative to a control, in per cent. Broadly, the IC50 is the concentration that gives 50% inhibition. Turning to `CC(=O)Oc1ccccc1C(=O)O` [Aspirin], the area under the curve (AUC) in data set [1] (oral, Phase 2B text, Aspirin 4.2 mg/Kg dose) was determined as 923 ng·h/mL; in data set [1] (Phase 2A, Aspirin 4.2 mg/Kg oral), 870 ng·h/mL. At 300 µM the inhibition in data set [2] was 56 ± 7%. In data set [3], the “release of pro-MMP-2 during platelet aggregation induced by 59M cells” value is recorded as “failed to prevent”. The “inhibitory effect on platelet aggregation induced by U46619” value in data set [4] was “Neither aspirin nor the aspirin prodrugs had any inhibitory effect”. The IC50 in data set [5] was 92 µM.
Turning to `CC(=O)Oc1ccccc1C(=O)O[C@H]1CO[C@H]2[C@@H]1OC[C@H]2OC(=O)c1cccnc1` [ST0702, isosorbide-2-aspirinate-5-nicotinate], in data set [6], the “inhibition of TCIPA under flow conditions (platelet-tumour cell disruption)” value is on record as “significantly arrested TCIPA; also recorded: effectively inhibit”.

(Values after US9670223B2, “Compounds with super-aspirin effects” (SOLVOTRIN THERAPEUTICS LTD., priority 2011, dated 2017).)
